The target in test [1] is T1, 5HT2 (Rattus norvegicus, UniProt P14842). Description: 5HT2 Blockade in vivo (antagonism of 5HT induced pressor responses). Conditions: for ED50: rat, iv, read-out: 5-HT-Induced Pressor Response ED50. The arrangement: Spontaneously hypertensive rats were anesthetized with sodium pentobarbital; from tissue; host or cells: whole animal: anesthetized spontaneously hypertensive rats (vasculature); species or system spontaneously hypertensive rats. As for the experimental part: Antagonism of 5HT induced pressor responses was used to assess 5HT2 blockade in vivo. Spontaneously hypertensive rats were anesthetized with sodium pentobarbital (50 mg/kg, i.p.). The right carotid artery and vein were cannulated for pressure recording and drug injection, respectively. The trachea was cannulated, the rat placed on a respirator and ventilated with room air at 50-60 breaths/minute. Rats were pretreated with prazosin hydrochloride (1 mg/kg, i.v., blous) and pentolinium tartrate (5 mg/kg, i.v., bolus). After 10 minutes equilibration, the rat was challenged with 5HT (100 μg/kg) which elevates mean arterial pressure (MAP) 60-100 mmHg; non-responsive rats were discarded.
T1 sequence (P14842 whole entry): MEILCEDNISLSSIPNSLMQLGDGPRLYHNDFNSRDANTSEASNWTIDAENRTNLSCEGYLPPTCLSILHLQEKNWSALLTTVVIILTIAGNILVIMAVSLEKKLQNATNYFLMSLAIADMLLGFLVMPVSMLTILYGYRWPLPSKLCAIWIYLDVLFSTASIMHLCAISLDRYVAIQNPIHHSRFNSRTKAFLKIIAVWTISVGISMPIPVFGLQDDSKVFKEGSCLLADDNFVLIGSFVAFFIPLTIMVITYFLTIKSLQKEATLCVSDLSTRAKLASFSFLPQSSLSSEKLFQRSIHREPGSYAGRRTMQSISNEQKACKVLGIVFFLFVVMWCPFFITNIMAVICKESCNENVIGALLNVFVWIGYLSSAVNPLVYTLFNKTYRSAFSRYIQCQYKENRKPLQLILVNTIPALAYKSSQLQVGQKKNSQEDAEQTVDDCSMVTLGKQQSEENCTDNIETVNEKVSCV
After a baseline had been reestablished, bolus injections of 5HT (100 μg/kg, i.v.) were given and the MAP responses were evaluated both pre- and post-drug administration. 5HT challenges were repeated 10 minutes after each dose of antagonist. Up to three cumulative doses of the antagonist were given to a single animal.

For test [2], the target named is T1, 5HT2. Description: Brain Serotonin (5-HT2) Radioreceptor Assay (3H-ketanserin displacement, rat frontal cortex membranes). Conditions: 15 min at 37° C. The arrangement: dissected from brains obtained from female rats; from tissue; host or cells: frontal cortex of female rats (about 150 g), membrane fragments. The test is classed as binding. The method, then:
Brain Serotonin (5-HT2) Radioreceptor Assay
The test objects of this Example were rat frontal cortex membranes. Mebrane fragments were prepared from the frontal cortex dissected from brains obtained from female rats (≈150 g). […] Compound bound to the receptor site was separated from the remaining unbound compound by vacuum filtration. […] Specific binding was determined by the difference between total counts bound and counts bound in the presence of 10^-6 M methysergide.

Test [3] has as its system serotonin-induced platelet aggregation. The experiment in a line: Platelet Aggregation Assay (serotonin-induced). It is filed as cell-based. Conditions: Platelet; human plasma, serotonin 5 μM. The method, then: Platelet Aggegation Assay
Human blood was collected into tubes containing sodium citrate. The plasma was separated by centrifugation and was used as the source of platelets. Serotonin (5 μM) was used as the agonist to induce platelet aggregation. A control aggregation curve (as measured by the decrease in absorbance in transmitted light) was obtained in the presence of serotonin and in the absence of test compound. The test compound was added to an identical sample in a cuvette for one minute before addition of serotonin to yield the experimental curve.

The target in test [4] is T2, 5HT1A receptor (Rattus norvegicus, UniProt P19327).
T2 construct: Membrane fragments were prepared from prefrontal cortex; from tissue; host or cells: prefrontal/frontal cortex of female rats (about 150 g), membrane fragments
T2 sequence (P19327 1-422): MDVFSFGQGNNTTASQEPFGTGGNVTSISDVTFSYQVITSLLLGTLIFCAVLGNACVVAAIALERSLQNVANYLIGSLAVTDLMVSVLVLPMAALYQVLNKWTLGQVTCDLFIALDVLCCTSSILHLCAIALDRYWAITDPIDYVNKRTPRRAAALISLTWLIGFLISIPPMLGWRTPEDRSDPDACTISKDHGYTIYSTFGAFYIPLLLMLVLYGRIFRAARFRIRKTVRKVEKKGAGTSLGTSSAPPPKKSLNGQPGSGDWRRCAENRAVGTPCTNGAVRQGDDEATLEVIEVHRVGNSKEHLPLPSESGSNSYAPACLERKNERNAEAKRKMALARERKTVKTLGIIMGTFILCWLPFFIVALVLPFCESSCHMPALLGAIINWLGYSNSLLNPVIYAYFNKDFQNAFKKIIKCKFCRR
Description: Brain Serotonin (5HT1A) radioreceptor Assay (3H-8-OH DPAT displacement, rat frontal cortex membranes). The test is classed as binding. Conditions: for inhibition at 1 µM: read-out: Brain 5-HT1 Receptor % displaced (% inhibition). As for the experimental part: Brain Serotonin (5HT1A) radioreceptor Assay
The text objects of this procedure were rat frontal cortex membranes. Membrane fragments were prepared from prefrontal cortex disected from brains obtained from female rats (≈150 g). The 5HT1A sites were labeled with ^3 H-8-OH dipropylaminotetralin (8-OH-DPAT). Membrane fragments, ^3 H-8-OH DPAT, TRIS buffer (pH 7.4) and unlabeled compound were incubated for 10 minutes at 37° C. and then for 10 minutes at 4° C. Separation of bound from unbound ^3 H-8-OH DPAT was performed by vacuum filtration on a glass fiber disc. The ability of a compound to compete with ^3 H-8-OH DPAT for binding sites is a measure of the affinity of the compound for the 5HT1A receptor. Specific binding was determined by the difference between total counts bound and the counts bound in the presence of […] 5-hydroxytryptamine.

Test [5] concerns Serotonin-Induced Smooth Muscle Contractions (rabbit thoracic aorta). The experiment in a line: Inhibition of Serotonin-Induced Smooth Muscle Contractions (isolated thoracic aorta strips). It is filed as cell-based. Conditions: Oryctolagus cuniculus, 10 min, concentration shifting the serotonin dose curve 10x to the right, 10 min preincubation, read-out: 5-HT-Induced Smooth Muscle Contraction DR10. The method, then: Inhibition of Serotonin-Induced Smooth Muscle Contractions
The test objects of this Example were canines and rabbits. Rabbits were sacrificed by T-61 injection and the thoracic aorta was removed immediately. The aorta was placed in warmed, oxygenated Krebs-Henseleit buffer. After the tissue was cleaned, a 2-3 mm wide strip was cut helically from each aorta. A strip of approximately 5 cm was suspended in Krebs-Henseleit buffer at 37° C. in a 25 ml tissue bath and the tissues equilibrated at an initial resting tension of 4 g for 90-120 minutes. An initial serotonin dose curve, 0.01-10 μM was then done on each tissue, followed by a 60 minute washout and reequilibration. The test drug was then added for a 10 minute preincubation and another serotonin dose curve was done using 0.01-100 μM.
Results are expressed as DR10 values. This is the concentration of the compound required to shift the serotonin dose curve 10x to the right, i.e., the concentration of antagonist at which the concentration of serotonin required for 50% maximal contraction is increased ten-fold.

Test [6] deals with alpha1 adrenergic receptor. The experiment in a line: Alpha1 Blockade in vivo (inhibition of phenylephrine pressor response). The arrangement: species or system spontaneously hypertensive rats (SHR). As to conditions: anesthetized, vagotomized SHR; i.v. As for the experimental part: The potency of these compounds as alpha1 adrenergic antagonists was determined using the following procedure: adult male spontaneously hypertensive rats (SHR) were anesthetized and bilaterally vagotomized. A carotid artery and jugular vein were cannulated for monitoring mean arterial blood pressure and drug administration, respectively. The percent inhibition of alpha1 adrenergic receptor activation was quantified by measuring pressor responses to phenylephrine before and after antagonist treatment. […] Compounds were tested to the limits of their solubility for intravenous administration.

Test [7] deals with Spontaneously Hypertensive Rats (SHR). The experiment in a line: Antihypertensive Activity in Spontaneously Hypertensive Rats (SHR). The test is classed as in vivo, rat. As to conditions: @ 5 mg/kg p.o., 4 h monitoring. As for the experimental part:
Antihypertensive Activity in Spontaneously Hypertensive Rats (SHR)
Antihypertensive activity was assessed using the following procedure. Adult male SHR were surgically prepared with arterial cannuli under light ether anesthesia and given 60-90 minute post-surgical recovery. Mean arterial pressure (MAP) was continuously monitored via the arterial line. After baseline MAP was recorded, groups of 3-6 SHR received a single dose of drug or vehicle (0.5% methylcellulose) administered by gavage at doses of 1 to 5 mg/kg.MAP was monitored for four hours post-dosing.
Maximal changes in MAP were reported.

Test [8] deals with serotonin receptors. Description: Inhibition of 5-HTP-Induced Head Twitching. Conditions: male CD1 mice; for Inhibit. of 5-HTP-Head Twitch ED50: 5-HTP 160 mg/kg i.v. after one hour. It is filed as in vivo. As for the experimental part: Inhibition of 5-HTP-Induced Head Twitching
This test detects compounds with antagonistic activity of serotonin receptors in vivo, and is a modified procedure of Corne, Pickering and Warner, Brit. J. Pharmacol. 20, 106 (1963). Groups of male CD1 mice were fasted overnight but allowed water ad libitum. They were deprived of water during the course of the experiment. The mice were weighed and treated orally or parenterally with the test compound in a dose volume of 10 ml/kg. Doses of test substance were calculated based upon the active compound. Substances for oral administration were dissolved or suspended in a 0.5% aqueous methylcellulose (15 centipoises) vehicle containing 4 ml of Tween 80/l.
A dose of 160 mg/kg of L-5-hydroxytryptophan (5-HTP) was administered i.v. in a dose volume of 5 ml/kg after one hour. The test mouse was restrained in a rodent restrainer that allowed the tail to extend out the back. The tail was then placed in tepid (but not scalding) water for approximately 10 seconds to soften the skin and dilate the tail vein. A 1 ml syringe and 25 gauge (5/8 inch) needle was used to administer the 5-HTP solution into one of the lateral tail veins.
A timer was started after dosing with 5-HTP to the first animal of the test group. […] A head twitch involves the head, neck and ears and has the appearance of an exaggerated pinal reflex. The number of head twitches for each individual vehicle-treated mouse were recorded to establish a historical baseline.
The active compounds in the test block the twitch response (the response rated all or none).

As usually defined, the ED50 is the dose at which the effect has come halfway, by size or by number of responders. Broadly, the IC50 is the concentration that gives 50% inhibition. By inhibition is commonly meant the percentage by which the read-out fell short of the control.

SMILES strings stand for the structures. Read-outs that look alike come from different tables or passages of the source.

In the case of `O=C(c1ccc(F)cc1)C1CCN(CCn2c(=O)[nH]c3ccsc3c2=O)CC1` [Example 1, 3-[2-[4-(4-Fluorobenzoyl)piperidin-1-yl]ethyl]thieno[3,2-d]pyrimidine-2,4-dione], in test [1], the ED50 came to 0.009 mg/kg. Besides, the IC50 was 0.0006 µM in test [2]; 0.034 µM in test [3]; 16 µM in test [4] (rat frontal cortex membranes, 3H-8-OH DPAT, pH 7.4, read-out: Brain 5-HT1 Receptor IC50). The IC (10-fold shift) in test [5] stood at 0.0063 µM. The “Phenylephrine-Induced Pressor Response ED50” value in test [6] is above 10 mg/kg. Moreover, the “Antihypertensive Activity, p.o., % AMAP (maximal change in mean arterial pressure)” value in test [7] is on record as -10%. Also, the “Inhibit. of 5-HTP-Head Twitch ED50” value in test [8] is 2.1 mg/kg, p.o.

`CC(=O)n1c(=O)n(CCN2CCC(C(=O)c3ccc(F)cc3)CC2)c(=O)c2ccsc21` [Example 3, 1-Acetyl-3-[2-[4-(4-fluorobenzoyl)piperidin-1-yl]ethyl]thieno[2,3-d]pyrimidine-2,4-dione]: the ED50 in test [1] amounted to 0.025 mg/kg. For the same compound, the IC50 in test [2] was determined as 0.0024 µM; in test [3] it was 8 µM. Also, in test [4] (3H-8-OH DPAT), the inhibition at 1 µM stood at 13%. In addition, the IC (10-fold shift) in test [5] was found to be 0.0229 µM. Besides, the “Phenylephrine-Induced Pressor Response ED50” value in test [6] is recorded as 10.0 mg/kg. The “Antihypertensive Activity, p.o., % AMAP (maximal change in mean arterial pressure)” value in test [7] is reported as -4%. Moreover, in test [8] (@ 10 (mg/kg, p.o.)), the “Inhibit. of 5-HTP-Head Twitch (result in words)” value is recorded as “Inact”.

Consider `O=c1[nH]c2sccc2c(=O)n1CCN1CCC(=C(c2ccc(F)cc2)c2ccc(F)cc2)CC1` [Example 6, 3-[2-[4-[Bis(4-fluorophenyl)methylene]piperidin-1-yl]ethyl]thieno[2,3-d]pyrimidine-2,4-dione], for which the ED50 in test [1] is 0.23 mg/kg. In addition, the half-maximal inhibitory concentration (IC50) in test [2] was determined as 0.0008 µM; in test [3], 4.5 µM. Also, the inhibition at 1 µM in test [4] (3H-8-OH DPAT) was 24%. For the same compound, the IC (10-fold shift) in test [5] came to 0.00899 µM. Further, in test [6], the “Phenylephrine-Induced Pressor Response ED50” value is above 3 mg/kg. Besides, the “Antihypertensive Activity, p.o., % AMAP (maximal change in mean arterial pressure)” value in test [7] is given as -13%.

Consider `O=C(c1ccc(F)cc1)C1CCN(CCn2c(=O)[nH]c3ccccc3c2=O)CC1` [Ketanserin, reference compound], for which the “5-HT-Induced Pressor Response ED50” value in test [1] (anesthetized SHR, 5HT 100 μg/kg i.v., cumulative doses of antagonist) is recorded as 0.013 mg/kg. Moreover, the figures for the IC50 in test [3] and in test [4] were 0.032 µM and 24.5 µM, respectively. Moreover, the “Phenylephrine-Induced Pressor Response ED50” value in test [6] is 1.08 mg/kg. In addition, the “Antihypertensive Activity, p.o., % AMAP (maximal change in mean arterial pressure)” value in test [7] is listed as -33%. Also, the “Inhibit. of 5-HTP-Head Twitch ED50” value in test [8] is 0.67 mg/kg, p.o.

These data come from patent publication US4835157A, “Thieno- and furopyrimidine-2,4-dione piperidine derivatives as serotonin antagonists and alpha adrenergic blocking agents” (Ortho Pharmaceutical Corporation, priority 1988, dated 1989).
